Experimental data reported in patent US7632811B2, “Analogs of parathyroid hormone” (Societe de Conseils de Recherches et D'Applications …, priority 1995, dated 2009).
Non-standard residues stand in square brackets, D forms with d. Residues, ends and D or L forms follow the SMILES beside them. hArg = N=C(N)NCCCC[C@H](N)C(=O)O; Cha = N[C@@H](CC1CCCCC1)C(=O)O; Ac6c = NC1(C(=O)O)CCCCC1; Nle = CCCC[C@H](N)C(=O)O; Dap = NC[C@H](N)C(=O)O; Aib = CC(C)(N)C(=O)O

Each compound was assayed against T1, PTH receptor present on SaOS-2 (human osteosarcoma cells) (Homo sapiens, UniProt Q03431) (assay: Binding to PTH receptor on SaOS-2 cells (competition with mono-125I-[Nle8,18,Tyr34(3-125I)]bPTH(1-34)NH2)). Details: Table I, 2 hrs at room temperature, read-out: Kd (half maximal inhibition of binding of mono-125I-[Nle8,18, Tyr34(3-125I)]bPTH(1-34)NH2).
T1 construct: host or cells: SaOS-2 human osteosarcoma cells (intact, confluent monolayers)
T1 sequence (Q03431 27-593): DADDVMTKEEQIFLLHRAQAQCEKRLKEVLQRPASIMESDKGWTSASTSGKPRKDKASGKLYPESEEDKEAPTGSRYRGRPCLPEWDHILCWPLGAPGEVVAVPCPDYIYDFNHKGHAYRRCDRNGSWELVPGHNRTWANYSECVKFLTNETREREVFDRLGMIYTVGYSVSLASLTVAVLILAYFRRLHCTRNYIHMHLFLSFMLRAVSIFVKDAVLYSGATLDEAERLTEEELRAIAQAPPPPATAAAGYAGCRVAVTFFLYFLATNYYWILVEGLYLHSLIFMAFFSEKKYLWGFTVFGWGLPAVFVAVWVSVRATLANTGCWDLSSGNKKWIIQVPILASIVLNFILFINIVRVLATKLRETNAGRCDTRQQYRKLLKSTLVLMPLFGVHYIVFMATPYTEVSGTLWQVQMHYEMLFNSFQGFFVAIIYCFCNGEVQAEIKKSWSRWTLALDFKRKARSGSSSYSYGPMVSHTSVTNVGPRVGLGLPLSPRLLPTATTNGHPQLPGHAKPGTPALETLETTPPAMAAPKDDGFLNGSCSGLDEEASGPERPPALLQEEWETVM
In short: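 Confluent SaOS-2 cells in 5% FBS RPMI were incubated 2 h at room temperature with 10×10^4 cpm mono-125I-[Nle8,18,Tyr34(3-125I)]bPTH(1-34)NH2 plus competing peptide at 10^−11 to 10^−4 M. After washing, cell-bound radioactivity was counted; Kd taken as half-maximal inhibition of tracer binding.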

Row | SMILES | Kd [nM]
1 | CC[C@H](C)[C@H](NC(=O)[C@H](CCC(=O)O)NC(=O)[C@H](CO)NC(=O)[C@@H](NC(=O)[C@@H](N)CO)C(C)C)C(=O)N[C@@H](CCC(N)=O)C(=O)N[C@@H](CC(C)C)C(=O)N[C@@H](CCSC)C(=O)N[C@@H](Cc1c[nH]cn1)C(=O)N[C@@H](CC(N)=O)C(=O)N[C@@H](CC(C)C)C(=O)NCC(=O)N[C@@H](CCCCN)C(=O)N[C@@H](Cc1c[nH]cn1)C(=O)N[C@@H](CC(C)C)C(=O)N[C@@H](CC(N)=O)C(=O)N[C@@H](CO)C(=O)N[C@@H](CCSC)C(=O)N[C@@H](CCC(=O)O)C(=O)N[C@@H](CCCNC(=N)N)C(=O)N[C@H](C(=O)N[C@@H](CCC(=O)O)C(=O)N[C@@H](Cc1c[nH]c2ccccc12)C(=O)N[C@@H](CC(C)C)C(=O)N[C@@H](CCCNC(=N)N)C(=O)N[C@@H](CCCCN)C(=O)N[C@@H](CCCCN)C(=O)N[C@@H](CC(C)C)C(=O)N[C@@H](CCC(N)=O)C(=O)N[C@@H](CC(=O)O)C(=O)N[C@@H](CC1CCCCC1)C(=O)N[C@@H](Cc1c[nH]cn1)C(=O)N[C@@H](CC(N)=O)C(=O)N[C@@H](Cc1ccccc1)C(N)=O)C(C)C [[Cha^31]hPTH(1-34)NH2] (H-SVSEIQLMHNLGKHLNSMERVEWLRKKLQD[Cha]HNF-NH2) | 30
2 | CC[C@H](C)[C@H](NC(=O)[C@H](CCC(=O)O)NC(=O)[C@H](CO)NC(=O)[C@@H](NC(=O)[C@@H](N)CO)C(C)C)C(=O)N[C@@H](CCC(N)=O)C(=O)N[C@@H](CC(C)C)C(=O)N[C@@H](CCSC)C(=O)N[C@@H](Cc1c[nH]cn1)C(=O)N[C@@H](CC(N)=O)C(=O)N[C@@H](CC(C)C)C(=O)NCC(=O)N[C@@H](CCCCN)C(=O)N[C@@H](Cc1c[nH]cn1)C(=O)N[C@@H](CC(C)C)C(=O)NC(C)(C)C(=O)N[C@@H](CO)C(=O)N[C@@H](CCSC)C(=O)N[C@@H](CCC(=O)O)C(=O)N[C@@H](CCCNC(=N)N)C(=O)N[C@H](C(=O)N[C@@H](CCC(=O)O)C(=O)N[C@@H](Cc1c[nH]c2ccccc12)C(=O)N[C@@H](CC(C)C)C(=O)N[C@@H](CCCNC(=N)N)C(=O)N[C@@H](CCCCN)C(=O)N[C@@H](CCCCN)C(=O)N[C@@H](CC(C)C)C(=O)N[C@@H](CCC(N)=O)C(=O)N[C@@H](CC(=O)O)C(=O)N[C@H](C(=O)N[C@@H](Cc1c[nH]cn1)C(=O)N[C@@H](CC(N)=O)C(=O)N[C@@H](Cc1ccccc1)C(N)=O)C(C)C)C(C)C [[Aib^16]hPTH(1-34)NH2] (H-SVSEIQLMHNLGKHL[Aib]SMERVEWLRKKLQDVHNF-NH2) | 4

Results, then the compound that gave them:

Row | Kd [nM] | SMILES
3 | 150 | CCCC[C@H](NC(=O)[C@H](CO)NC(=O)[C@H](CC(N)=O)NC(=O)[C@H](CC(C)C)NC(=O)[C@H](Cc1c[nH]cn1)NC(=O)[C@H](CCCCN)NC(=O)CNC(=O)[C@H](CC(C)C)NC(=O)[C@H](CC(N)=O)NC(=O)[C@H](Cc1c[nH]cn1)NC(=O)[C@H](CCCC)NC(=O)[C@H](CC(C)C)NC(=O)[C@H](CCC(N)=O)NC(=O)[C@@H](NC(=O)[C@H](CCC(=O)O)NC(=O)[C@H](CO)NC(=O)[C@@H](NC(=O)[C@@H](N)CN)C(C)C)[C@@H](C)CC)C(=O)N[C@@H](CCC(=O)O)C(=O)N[C@@H](CCCNC(=N)N)C(=O)N[C@H](C(=O)N[C@@H](CCC(=O)O)C(=O)N[C@@H](Cc1c[nH]c2ccccc12)C(=O)N[C@@H](CC(C)C)C(=O)N[C@@H](CCCNC(=N)N)C(=O)N[C@@H](CCCCN)C(=O)N[C@@H](CCCCN)C(=O)N[C@@H](CC(C)C)C(=O)N[C@@H](CCC(N)=O)C(=O)N[C@@H](CC(=O)O)C(=O)N[C@H](C(=O)N[C@@H](Cc1c[nH]cn1)C(=O)N[C@@H](CC(N)=O)C(=O)N[C@@H](Cc1ccc(O)cc1)C(N)=O)C(C)C)C(C)C [[Dap,Nle^8,18, Tyr^34]hPTH(1-34)NH2] (H-[Dap]VSEIQL[Nle]HNLGKHLNS[Nle]ERVEWLRKKLQDVHNY-NH2)
4 | 7 | CC[C@H](C)[C@H](NC(=O)[C@H](CCC(=O)O)NC(=O)[C@H](CO)NC(=O)[C@@H](NC(=O)[C@@H](N)CO)C(C)C)C(=O)N[C@@H](CCC(N)=O)C(=O)N[C@@H](CC(C)C)C(=O)N[C@@H](CCSC)C(=O)N[C@@H](Cc1c[nH]cn1)C(=O)N[C@@H](CC(N)=O)C(=O)N[C@@H](CC(C)C)C(=O)NCC(=O)N[C@@H](CCCCN)C(=O)N[C@@H](Cc1c[nH]cn1)C(=O)N[C@@H](CC(C)C)C(=O)N[C@@H](CC(N)=O)C(=O)N[C@@H](CO)C(=O)N[C@@H](CCSC)C(=O)N[C@@H](CCC(=O)O)C(=O)N[C@@H](CCCNC(=N)N)C(=O)N[C@H](C(=O)N[C@@H](CCC(=O)O)C(=O)N[C@@H](Cc1c[nH]c2ccccc12)C(=O)N[C@@H](CC(C)C)C(=O)N[C@@H](CCCNC(=N)N)C(=O)N[C@@H](CCCCN)C(=O)N[C@@H](CCCCNC(=N)N)C(=O)N[C@@H](CC(C)C)C(=O)N[C@@H](CCC(N)=O)C(=O)N[C@@H](CC(=O)O)C(=O)N[C@H](C(=O)N[C@@H](Cc1c[nH]cn1)C(=O)N[C@@H](CC(N)=O)C(=O)N[C@@H](Cc1ccccc1)C(N)=O)C(C)C)C(C)C [[hArg^27]hPTH(1-34)NH2] (H-SVSEIQLMHNLGKHLNSMERVEWLRK[hArg]LQDVHNF-NH2)

Same assay, conditions: Table II, 2 hrs at room temperature, read-out: Kd (half maximal inhibition of binding of mono-125I-[Nle8,18, Tyr34(3-125I)]bPTH(1-34)NH2)

Row | Kd [nM] | SMILES
5 | 6 | CC[C@H](C)[C@H](NC(=O)[C@H](CO)NC(=O)[C@H](CCCCN)NC(=O)CNC(=O)[C@H](CCCCN)NC(=O)[C@H](CC(=O)O)NC(=O)[C@H](Cc1c[nH]cn1)NC(=O)[C@H](CC(C)C)NC(=O)[C@H](CC(C)C)NC(=O)[C@H](CCC(N)=O)NC(=O)[C@H](Cc1c[nH]cn1)NC(=O)[C@H](CCC(=O)O)NC(=O)[C@H](CO)NC(=O)[C@@H](NC(=O)[C@H](C)N)C(C)C)C(=O)N[C@@H](CCC(N)=O)C(=O)N[C@@H](CC(=O)O)C(=O)N[C@@H](CC(C)C)C(=O)N[C@@H](CCCNC(=N)N)C(=O)N[C@@H](CCCNC(=N)N)C(=O)N[C@@H](CCCNC(=N)N)C(=O)N[C@@H](CCC(=O)O)C(=O)N[C@@H](CC(C)C)C(=O)NC1(C(=O)N[C@@H](CCC(=O)O)C(=O)N[C@@H](CCCCN)C(=O)N[C@@H](CC(C)C)C(=O)N[C@@H](CC(C)C)C(=O)NC(C)(C)C(=O)N[C@@H](CCCCN)C(=O)N[C@@H](CC(C)C)C(=O)N[C@@H](Cc2c[nH]cn2)C(=O)N[C@H](C(=O)N[C@@H](C)C(N)=O)[C@@H](C)O)CCCCC1 [[Glu^22,25, Leu^23,28,31, Ahc^24, Lys^26,30, Aib^29]hPTHrP(1-34)NH2] (H-AVSEHQLLHDKGKSIQDLRRREL[Ac6c]EKLL[Aib]KLHTA-NH2; N-terminus assumed)
6 | 60 | CC[C@H](C)[C@H](NC(=O)[C@H](CO)NC(=O)[C@H](CCCCN)NC(=O)CNC(=O)[C@H](CCCCN)NC(=O)[C@H](CC(=O)O)NC(=O)[C@H](Cc1c[nH]cn1)NC(=O)[C@H](CC(C)C)NC(=O)[C@H](CC(C)C)NC(=O)[C@H](CCC(N)=O)NC(=O)[C@H](Cc1c[nH]cn1)NC(=O)[C@H](CCC(=O)O)NC(=O)[C@H](CO)NC(=O)[C@@H](NC(=O)[C@H](C)N)C(C)C)C(=O)N[C@@H](CCC(N)=O)C(=O)N[C@@H](CC(=O)O)C(=O)N[C@@H](CC(C)C)C(=O)N[C@@H](CCCNC(=N)N)C(=O)N[C@@H](CCCNC(=N)N)C(=O)N[C@@H](CCCNC(=N)N)C(=O)N[C@@H](CC1CCCCC1)C(=O)N[C@@H](CC(C)C)C(=O)N[C@@H](CC(C)C)C(=O)N[C@@H](CCC(=O)O)C(=O)N[C@@H](CCCCN)C(=O)NC1(C(=O)N[C@@H](CC(C)C)C(=O)NC(C)(C)C(=O)N[C@@H](CCCCN)C(=O)N[C@@H](CC(C)C)C(=O)N[C@@H](Cc2c[nH]cn2)C(=O)N[C@H](C(=O)N[C@@H](C)C(N)=O)[C@@H](C)O)CCCCC1 [[Cha^22, Leu^23,28,31, Glu^25, Lys^26,30, Ahc^27, Aib^29]hPTHrP(1-34)NH2] (H-AVSEHQLLHDKGKSIQDLRRR[Cha]LLEK[Ac6c]L[Aib]KLHTA-NH2)
7 | 230 | CC[C@H](C)[C@H](NC(=O)[C@H](CO)NC(=O)[C@H](CCCCN)NC(=O)CNC(=O)[C@H](CCCCN)NC(=O)[C@H](CC(=O)O)NC(=O)[C@H](Cc1c[nH]cn1)NC(=O)[C@H](CC(C)C)NC(=O)[C@H](CC(C)C)NC(=O)[C@H](CCC(N)=O)NC(=O)[C@H](Cc1c[nH]cn1)NC(=O)[C@H](CCC(=O)O)NC(=O)[C@H](CO)NC(=O)[C@@H](NC(=O)[C@H](C)N)C(C)C)C(=O)N[C@@H](CCC(N)=O)C(=O)N[C@@H](CC(=O)O)C(=O)N[C@@H](CC(C)C)C(=O)N[C@@H](CCCNC(=N)N)C(=O)N[C@@H](CCCNC(=N)N)C(=O)N[C@@H](CCCNC(=N)N)C(=O)N[C@@H](CCC(=O)O)C(=O)N[C@@H](CC(C)C)C(=O)N[C@@H](CC(C)C)C(=O)N[C@@H](CCC(=O)O)C(=O)N[C@@H](CCCCN)C(=O)N[C@@H](CC(C)C)C(=O)N[C@@H](CC(C)C)C(=O)N[C@@H](CCC(=O)O)C(=O)NC1(C(=O)N[C@@H](CC(C)C)C(=O)N[C@@H](Cc2c[nH]cn2)C(=O)N[C@H](C(=O)N[C@@H](C)C(N)=O)[C@@H](C)O)CCCCC1 [[Glu^22,25,29, Leu^23,28,31, Lys^26, Ahc^30]hPTHrP(1-34)NH2] (H-AVSEHQLLHDKGKSIQDLRRRELLEKLLE[Ac6c]LHTA-NH2; N-terminus assumed)
